Assay results as given in ChEMBL document CHEMBL3885881, “DrugMatrix”.

Species: Rattus norvegicus
Experiment: DrugMatrix - Regimen: Daily Repeat
Format: toxicity, organism-based, Sprague-Dawley
Set-up: regimen Daily Repeat, gender Male, age 6-8 weeks
Settings: in vivo, po, route oral GAVAGE, vehicle 100 % WATER; for ABSOLUTE BASOPHIL / ABSOLUTE EOSINOPHIL / ABSOLUTE LYMPHOCYTE / ABSOLUTE MONOCYTE / ABSOLUTE SEGMENTED NEUTROPHIL / BASOPHIL / EOSINOPHIL / ERYTHROCYTE COUNT / HEMATOCRIT / HEMOGLOBIN / LEUKOCYTE COUNT / LYMPHOCYTE / MEAN CORPUSCULAR HEMOGLOBIN / MEAN CORPUSCULAR HEMOGLOBIN CONCENTRATION / MEAN CORPUSCULAR VOLUME / MONOCYTE / NEUTROPHIL / NUCLEATED RED BLOOD CELLS / PLATELET COUNT: tissue Blood; for ALANINE AMINOTRANSFERASE / ALBUMIN / ALKALINE PHOSPHATASE / ASPARTATE AMINOTRANSFERASE / BLOOD UREA NITROGEN / CARBON DIOXIDE / CHLORIDE / CHOLESTEROL / CREATINE PHOSPHOKINASE / CREATININE / GLUCOSE / LACTATE DEHYDROGENASE / LIPASE / PHOSPHORUS / POTASSIUM / SODIUM / TOTAL BILIRUBIN / TOTAL PROTEIN / URIC ACID: tissue Plasma
[1] = 0 mg/kg, 72 h, dose level Control, time 3 day
[2] = 0 mg/kg, 120 h, dose level Control, time 5 day
[3] = 63 mg/kg, 72 h, dose level High, time 3 day

For `CNCCC=C1c2ccccc2CCc2ccccc21` [NORTRIPTYLINE], the “ABSOLUTE BASOPHIL” value [1] was 0 CELLS/uL, the “ABSOLUTE EOSINOPHIL” value [1] was 123.17 CELLS/uL and the “ABSOLUTE LYMPHOCYTE” value [1] was 12677.83 CELLS/uL. For the same molecule, the “ABSOLUTE MONOCYTE” value [1] was 66.17 CELLS/uL, the “ABSOLUTE SEGMENTED NEUTROPHIL” value [1] was 1149.5 CELLS/uL and the BASOPHIL [1] was 0%. For the same molecule, the EOSINOPHIL [1] was 0.83%, the “ERYTHROCYTE COUNT” value [1] was 5.26 x10E6/uL and the HEMATOCRIT [1] was 33.07%. For the same molecule, the HEMOGLOBIN [1] was 13.43 G/DL, the “LEUKOCYTE COUNT” value [1] was 14.02 x10E3/uL and the LYMPHOCYTE [1] was 90.17%. For the same molecule, the “MEAN CORPUSCULAR HEMOGLOBIN” value [1] was 25.62 pg, the “MEAN CORPUSCULAR HEMOGLOBIN CONCENTRATION” value [1] was 40.65 G/DL and the “MEAN CORPUSCULAR VOLUME” value [1] was 63 fL. The MONOCYTE [1] was 0.5%, the NEUTROPHIL [1] was 8.5% and the “NUCLEATED RED BLOOD CELLS” value [1] was 0.17 /100WBC. For the same molecule, the “PLATELET COUNT” value [1] was 1142.83 x10E3/uL, the “ALANINE AMINOTRANSFERASE” value [1] was 45.17 u/L and the ALBUMIN [1] was 3.78 G/DL. The “ALKALINE PHOSPHATASE” value [1] was 340.17 u/L, the “ASPARTATE AMINOTRANSFERASE” value [1] was 77.33 u/L and the “BLOOD UREA NITROGEN” value [1] was 14.67 mg/dL. The “CARBON DIOXIDE” value [1] was 28.67 mmol/L, the CHLORIDE [1] was 101.17 MEQ/L and the CHOLESTEROL [1] was 77.67 mg/dL. For the same molecule, the “CREATINE PHOSPHOKINASE” value [1] was 263.67 u/L, the CREATININE [1] was 0.15 mg/dL and the GLUCOSE [1] was 169.33 mg/dL. For the same molecule, the “LACTATE DEHYDROGENASE” value [1] was 230 u/L, the LIPASE [1] was 9.67 u/L and the PHOSPHORUS [1] was 11.8 mg/dL. For the same molecule, the POTASSIUM [1] was 5.91 MEQ/L, the SODIUM [1] was 142.88 MEQ/L and the “TOTAL BILIRUBIN” value [1] was 0.22 mg/dL. For the same molecule, the “TOTAL PROTEIN” value [1] was 5.7 G/DL, the “URIC ACID” value [1] was 1.35 mg/dL and the “ABSOLUTE BASOPHIL” value [2] was 0 CELLS/uL. The “ABSOLUTE EOSINOPHIL” value [2] was 125 CELLS/uL, the “ABSOLUTE LYMPHOCYTE” value [2] was 13809 CELLS/uL and the “ABSOLUTE MONOCYTE” value [2] was 351 CELLS/uL. The “ABSOLUTE SEGMENTED NEUTROPHIL” value [2] was 1581.67 CELLS/uL, the BASOPHIL [2] was 0% and the EOSINOPHIL [2] was 0.67%. The “ERYTHROCYTE COUNT” value [2] was 5.53 x10E6/uL, the HEMATOCRIT [2] was 34.83% and the HEMOGLOBIN [2] was 13.9 G/DL. For the same molecule, the “LEUKOCYTE COUNT” value [2] was 15.87 x10E3/uL, the LYMPHOCYTE [2] was 87.5% and the “MEAN CORPUSCULAR HEMOGLOBIN” value [2] was 25.25 pg. The “MEAN CORPUSCULAR HEMOGLOBIN CONCENTRATION” value [2] was 40.08 G/DL, the “MEAN CORPUSCULAR VOLUME” value [2] was 63.05 fL and the MONOCYTE [2] was 2.17%. For the same molecule, the NEUTROPHIL [2] was 9.67%, the “NUCLEATED RED BLOOD CELLS” value [2] was 0 /100WBC and the “PLATELET COUNT” value [2] was 1044 x10E3/uL. For the same molecule, the “ALANINE AMINOTRANSFERASE” value [2] was 50.67 u/L, the ALBUMIN [2] was 4.33 G/DL and the “ALKALINE PHOSPHATASE” value [2] was 395 u/L. For the same molecule, the “ASPARTATE AMINOTRANSFERASE” value [2] was 86 u/L, the “BLOOD UREA NITROGEN” value [2] was 15.33 mg/dL and the “CARBON DIOXIDE” value [2] was 29.33 mmol/L. The CHLORIDE [2] was 101.5 MEQ/L, the CHOLESTEROL [2] was 71.33 mg/dL and the “CREATINE PHOSPHOKINASE” value [2] was 323.17 u/L. For the same molecule, the CREATININE [2] was 0.18 mg/dL, the GLUCOSE [2] was 145.67 mg/dL and the “LACTATE DEHYDROGENASE” value [2] was 389.5 u/L. For the same molecule, the LIPASE [2] was 9.83 u/L, the PHOSPHORUS [2] was 11.35 mg/dL and the POTASSIUM [2] was 6.39 MEQ/L. The SODIUM [2] was 142.77 MEQ/L, the “TOTAL BILIRUBIN” value [2] was 0.18 mg/dL and the “TOTAL PROTEIN” value [2] was 6.1 G/DL. For the same molecule, the “URIC ACID” value [2] was 1.52 mg/dL, the “ABSOLUTE BASOPHIL” value [3] was 0 CELLS/uL and the “ABSOLUTE EOSINOPHIL” value [3] was 63 CELLS/uL. The “ABSOLUTE LYMPHOCYTE” value [3] was 15345.67 CELLS/uL, the “ABSOLUTE MONOCYTE” value [3] was 215.33 CELLS/uL and the “ABSOLUTE SEGMENTED NEUTROPHIL” value [3] was 642.67 CELLS/uL. For the same molecule, the BASOPHIL [3] was 0%, the EOSINOPHIL [3] was 0.33% and the “ERYTHROCYTE COUNT” value [3] was 6.2 x10E6/uL. For the same molecule, the HEMATOCRIT [3] was 38.33%, the HEMOGLOBIN [3] was 14.97 G/DL and the “LEUKOCYTE COUNT” value [3] was 16.27 x10E3/uL. For the same molecule, the LYMPHOCYTE [3] was 94.33%, the “MEAN CORPUSCULAR HEMOGLOBIN” value [3] was 24.13 pg and the “MEAN CORPUSCULAR HEMOGLOBIN CONCENTRATION” value [3] was 39.07 G/DL. The “MEAN CORPUSCULAR VOLUME” value [3] was 61.83 fL, the MONOCYTE [3] was 1.33% and the NEUTROPHIL [3] was 4%. For the same molecule, the “NUCLEATED RED BLOOD CELLS” value [3] was 1 /100WBC, the “PLATELET COUNT” value [3] was 1320 x10E3/uL and the “ALANINE AMINOTRANSFERASE” value [3] was 47.33 u/L. For the same molecule, the ALBUMIN [3] was 3.83 G/DL, the “ALKALINE PHOSPHATASE” value [3] was 416.67 u/L and the “ASPARTATE AMINOTRANSFERASE” value [3] was 75 u/L. The “BLOOD UREA NITROGEN” value [3] was 15 mg/dL, the “CARBON DIOXIDE” value [3] was 29.33 mmol/L and the CHLORIDE [3] was 101 MEQ/L. For the same molecule, the CHOLESTEROL [3] was 74.67 mg/dL, the “CREATINE PHOSPHOKINASE” value [3] was 194 u/L and the CREATININE [3] was 0.17 mg/dL. For the same molecule, the GLUCOSE [3] was 184 mg/dL, the “LACTATE DEHYDROGENASE” value [3] was 108 u/L and the LIPASE [3] was 9 u/L. It also gave a PHOSPHORUS [3] of 13.13 mg/dL, a POTASSIUM [3] of 6.61 MEQ/L and an SODIUM [3] of 143.73 MEQ/L. The “TOTAL BILIRUBIN” value [3] was 0.2 mg/dL, the “TOTAL PROTEIN” value [3] was 5.63 G/DL and the “URIC ACID” value [3] was 1.9 mg/dL.
